Series [1] deals with mdx mice. Nature of the series: Grip test in mdx mice chronically administered. The following applies: mdx mice, 10, 50 or 200 pmole/Kg subcutaneous chronic, Week 0 to 30. Type of series: in vivo, mouse. As for the experimental part: “DMD-ASO 1” was evaluated by chronically administering to mdx mice for its ability to improve muscle function by grip test, to induce exon skipping, to upregulate the expression of the full-length dystrophin (i.e., dystrophin protein with the C-terminus encoded) by IHC, and to improve the muscular integrity by histopathology with H&E staining as described below.
[Grouping & ASO Treatment] Male mdx mice (7 weeks old) were randomly assigned to 4 groups of 0 (mdx negative control), 10, 50, and 200 pmole/Kg “DMD-ASO 1” based on individual grip strength scores by grip test. (N=12 per group) A satellite group of 12 male C57BL/6 mice (7 weeks old) was included in this study as the wild type negative control group for the full-length dystrophin expression level.
The 50 and 200 pmole/Kg group subcutaneously received “DMD-ASO 1” as dissolved in PBS, 2× per week until the final sacrifice in Week 43. In the meantime, the 10 pmole/Kg group subcutaneously received “DMD-ASO 1” initially 2× per week during Week 0 to 8, and 3× per week afterwards to increase the ASO exposure.
[Muscle Function by Grip Test] Muscle function was evaluated on a weekly basis by grip strength on a grip strength-meter (Cat. Number 47,200, Ugo Basile) according to the literature. [J. Appl. […] The grip strength scores by group were evaluated for statistical significance by student's t-test against the mdx negative control group.

Series [2] has as its system mdx mice. Nature of the series: Histopathology by H&E staining of skeletal muscle in mdx mice. It counts as in vivo, mouse. From the text: [Histopathology by H&E Staining] Muscular inflammation and degeneration are the hallmark of DMD symptoms. Skeletal muscle samples were subjected to histopathology evaluation by H&E staining. FIG. 43 provides a representative set of H&E staining images for the triceps by group and sampling time point.

Regarding “Fethoc-A(5)GA-G(6)CC(1O2)-TCA-A(5)AA(5)-T-NH2 (antisense AGAGCCTCAAAAT; Fethoc N-cap, C-terminal amide, chemistry not fully specified) [DMD-ASO 1]”, the “increase of grip strength compared to the mdx negative control group” value in the series on mdx mice [1] is 30-50%. Moreover, in the series with mdx mice [2] (chronic 200 pmole/Kg), the “muscular degeneration and inflammation (H&E)” value was “reversed”. In addition, the “severity of the histopathology findings (H&E)” value in the series on mdx mice [2] (chronic 10 and 50 pmole/Kg) is recorded as “weaker than the severity in the mdx negative control, but stronger than that in the 200 pmole/Kg group”.

The values above are taken from patent US12624068B2, “Exon skipping by peptide nucleic acid derivatives” (OliPass Corporation, priority 2016, dated 2026).
